Experimental data published in patent US20070207975A1, “Materials and methods for treating and preventing Her-2/neu overexpressing, FAS-elevated cancer cells” (EVANSTON NORTHWESTERN HEALTHCARE, priority 2006, published 2007).

Experiments:
BT-474 cells = assay: TUNEL apoptosis assay, BT-474; type: cell-based, human
Description: FIG. 6. […] The immunofluorescence photomicrographs of cells undergoing apoptosis (green staining) and the corresponding DAPI-counterstained photomicrographs are shown. […] Equal amounts of total protein (50 μg per lane) were subjected to Western blot analyses with a specific antibody against the p85 fragment of PARP, and then re-probed with a β-actin antibody. […] For each pair of columns, the height of the columns on the left represents the sum of the effect of each agent alone and, therefore, the expected apoptotic cell death if their effect was additive when used in combination. The total height of the columns on the right indicates the observed apoptosis when the agents were used in combination. […] A) Cell surface expression of Her-2/neu protein in BT-474 and SK-Br3 cells was determined by flow cytometry using a mouse anti-Her-2/neu antibody directed against the extracellular domain of the p185^Her-2/neu oncoprotein (clone Ab-5; Oncogene Research Products; San Diego, Calif.). […] The mean fluorescence signal associated with cells for labeled p185^Her-2/neu was quantified using the Geo Mean (GM) fluorescence parameter provided with the software. […] Immunoreactive bands were detected by enhanced chemiluminescence reagent (Pierce, Rockford, Ill.). […] Densitometric values of protein bands were quantified using Scion Imaging Software (Scion Corp., Frederick, Md.).

p27^Kip1 = assay: Western blot of p27Kip1 expression; type: cell-based, human; conditions: BT-474; 72 hours; OA, trastuzumab or combination
From the text: (§1) Densitometric values of protein bands were quantified using Scion Imaging Software (Scion Corp., Frederick, Md.).

[1] = test system: phospho-MAPK and phospho-Ser^473 AKT; assay: Western blot of phospho-MAPK and phospho-AKT; type: cell-based, human; conditions: BT-474; 48 hours; OA 5 μM, trastuzumab 10 μg/ml in combination
From the text: as §1

SK-Br3 and BT-474 cells = assay: Anchorage-dependent cell proliferation (Coulter Counter); type: cell-based, human; conditions: low concentrations of OA, increasing concentrations of trastuzumab, or combination, 6 days
Description: (A) Left panel: exponentially growing SK-Br3 and BT-474 cells were trypsinized and plated in 24-well plates at a density of 10,000 cells/well. Cells were incubated for 24 hours to allow for attachment and starved for serum overnight, after which a zero time point was determined. […] Cells were counted at days 0, 3 and 6 with a Coulter Counter. All assays were performed three times in triplicate. The data are presented as mean number of cells×10^4/well (columns)±SD (bars) after 6 days treatment. […] For each pair of columns, the height of the columns on the left represents the sum of the effect of each agent alone and, therefore, the expected percentage of cell growth inhibition if their effect was additive when used in combination. […] Colony formation (≧50 μm) was assessed using a colony counter. Each experimental value represents the mean colony number (columns)±SD (bars) from three separate experiments in which triplicate dishes were counted. […]
SK-Br3 and BT-474 cells exponentially growing in IMEM-5% FBS were trypsinized and re-plated in 24-well plates at a density of 10,000 cells/well. Cells were incubated for 24 hours to allow for attachment, after which a zero time point was determined. […] Cell number was determined at days 0, 3 and 6 with a Coulter Counter (Coulter Electronics, Inc., Hialeah, Fla.). […]

p185^Her-2/neu [2] = assay: In situ immunofluorescent staining of p185Her-2/neu; type: cell-based, human; conditions: BT-474; 48 hours
From the text: FIG. 2. Exogenous supplementation with OA synergistically enhances trastuzumab-induced down-regulation of p185^Her-2/neu. […] The amount of cell surface-associated p185^Her-2/neu was quantified by flow cytometric analyses using a specific antibody against the extracellular domain of p185^Her-2/neu (Ab-5), as described herein. The mean fluorescence signal±SD (n=3) was quantified using the geo mean fluorescence (GM) parameter provided with the Cell Quest Software (Becton Dickinson). […] After labeling, cells were washed thoroughly, and localization of p185^Her-2/neu was detected by indirect immunofluorescence by incubating with FITC-conjugated anti-mouse IgG. After counterstaining with DAPI, cells were examined and photographed using a Zeiss fluorescent microscope equipped with a built-in camera. […] Similar results were obtained in three independent experiments. […] Similar results were obtained in three independent experiments. Cells were seeded at a density of 1×10^4 cells/well in a four-well chamber slide (Nalge Nunc International, Rochester, N.Y.). […] Indirect immunofluorescence was recorded on a Zeiss microscope. […] Thereafter, p185^Her-2/neu cellular localization was assessed using the anti-erbB2, Ab-3 mouse monoclonal antibody (Oncogene Research Products), which is directed against the C-terminal 14 amino acids of p185^Her-2/neu. […]

p185^Her-2/neu [3] = conditions: cultured breast cancer cells; exogenous GLA supplementation; reference (16); cited from earlier work

Row | Structure (SMILES) | TUNEL-positive cells (BT-474 cells; OA 5 μM, trastuzumab 10 μg/ml, alone or simultaneously, 72 hours) [%] | expression of p27^Kip1 (p27^Kip1) | active MAPK and active AKT (phospho-MAPK, phospho-Ser^473 AKT) [1] | anchorage-dependent cell growth (SK-Br3 and BT-474 cells) | p185^Her-2/neu-associated membrane (cell surface) staining (p185^Her-2/neu [2]) | cells that underwent apoptosis (TUNEL) (BT-474 cells; GLA 10 μg/mL, trastuzumab 10 μg/mL, alone or together, 48 hours) | proteolytic cleavage of the extracellular domain of p185^Her-2/neu (p185^Her-2/neu [3])
1 | CCCCCCCCC=CCCCCCCCC(=O)O [OA, 9-octadecenoic acid] | 2 | slight increase | inhibited active MAPK and active AKT | no notable effects | markedly reduced |  | 
2 | CCCCCC=CCC=CCC=CCCCCC(=O)O [GLA, 6,9,12-octadecatrienoic acid] |  |  |  |  |  | 5% (95% confidence interval [CI]=4% to 6%) | significantly diminished
